Where “and” joins values, the source holds several entries; their conditions need not be identical. Identical values can stand only once.
Experiment: xn = mol fraction of the nth substance listed

CCCC[N+](CCCC)(CCCC)CCCC.[I-] + CCCCCCCCCO
101.3 kPa, x1 = 0.0476
Conditions | viscosity [mPa·s]
293.15 K | 16.29
298.15 K | 13.16
303.15 K | 10.92
308.15 K | 9.085
313.15 K | 7.675
318.15 K | 6.439
323.15 K | 5.529

CCN(CC)CC + ClC(Cl)Cl
298.15 K, 101 kPa
Conditions | viscosity [mPa·s]
x2 = 0.0983 | 0.389
x2 = 0.1979 | 0.442
x2 = 0.2978 | 0.503
x2 = 0.3989 | 0.567
x2 = 0.4988 | 0.618
x2 = 0.5829 | 0.64
x2 = 0.6859 | 0.631
x2 = 0.8008 | 0.604
x2 = 0.901 | 0.574

CCCC(C)=O + CCCCN(CCCC)CCCC
viscosity [mPa·s], 101 kPa
Conditions | 298.15 K | 303.15 K | 308.15 K
x2 = 0.0499 | 0.49 | 0.465 | 0.436
x2 = 0.1 | 0.521 | 0.49 | 0.462
x2 = 0.1499 | 0.554 | 0.521 | 0.491
x2 = 0.2 | 0.588 | 0.551 | 0.519
x2 = 0.2498 | 0.624 | 0.584 | 0.547
x2 = 0.3 | 0.66 | 0.614 | 0.575
x2 = 0.3999 | 0.735 | 0.681 | 0.636
x2 = 0.4997 | 0.81 | 0.75 | 0.698
x2 = 0.5997 | 0.889 | 0.821 | 0.764
x2 = 0.7002 | 0.974 | 0.898 | 0.832
x2 = 0.7997 | 1.065 | 0.977 | 0.902
x2 = 0.8463 | 1.108 | 1.02 | 0.936
x2 = 0.899 | 1.165 | 1.064 | 0.979
x2 = 0.956 | 1.227 | 1.118 | 1.025

[Cl-].[Cl-].[Cu+2] + O
viscosity [mPa·s]
Conditions | x1 = 0.000905 | x1 = 0.00112 | x1 = 0.002247 | x1 = 0.002718 | x1 = 0.004484 | x1 = 0.00453 | x1 = 0.006344 | x1 = 0.008159 | x1 = 0.008927 | x1 = 0.0177
308.15 K, 101.3 kPa | – | 0.739 | 0.7708 | – | 0.8088 | – | – | – | 0.879 | 0.9692
308.15 K, 101.33 kPa | 0.7395 | – | – | 0.7712 | – | 0.8092 | 0.8409 | 0.879 | – | –
313.15 K, 101.3 kPa | – | 0.6675 | 0.697 | – | 0.7375 | – | – | – | 0.794 | 0.8595
313.15 K, 101.33 kPa | 0.668 | – | – | 0.6975 | – | 0.738 | 0.762 | 0.7945 | – | –
323.15 K, 101.3 kPa | – | 0.577 | 0.601 | – | 0.637 | – | – | – | 0.6967 | 0.7595
323.15 K, 101.33 kPa | 0.5775 | – | – | 0.6015 | – | 0.6375 | 0.6685 | 0.6972 | – | –

ClC(Cl)(Cl)Cl + CC#N
viscosity [mPa·s], 101 kPa
Conditions | 293.15 K | 298.15 K | 303.15 K | 313.15 K | 323.15 K
x2 = 0.007 | 0.954 | 0.883 | 0.813 | 0.74 | 0.638
x2 = 0.026 | 0.948 | 0.855 | 0.798 | 0.724 | 0.612
x2 = 0.084 | 0.906 | 0.862 | 0.831 | 0.736 | 0.659

ClC(Cl)(Cl)Cl + C1COCCO1
101 kPa
Conditions | viscosity
298.15 K, x1 = 0.1175 | 1.203 mPa·s
298.15 K, x1 = 0.219 | 1.208 mPa·s
298.15 K, x1 = 0.373 | 1.193 mPa·s
298.15 K, x1 = 0.5081 | 1.165 mPa·s
298.15 K, x1 = 0.675 | 1.093 mPa·s
298.15 K, x1 = 0.8092 | 1.009 mPa·s
298.15 K, x1 = 0.892 | 0.961 mPa·s
303.15 K, x1 = 0.675 | 1.007 mPa·s
303.15 K, x1 = 0.8092 | 0.938 mPa·s
303.15 K, x1 = 0.892 | 0.896 mPa·s
303.15 K, x2 = 0.0983 | 0.901 mPa·s
303.15 K, x2 = 0.1116 | 0.907 mPa·s
303.15 K, x2 = 0.112 | 0.922 mPa·s
303.15 K, x2 = 0.204 | 0.957 mPa·s
303.15 K, x2 = 0.2198 | 0.9914 mPa·s
303.15 K, x2 = 0.22 | 1.016 mPa·s
303.15 K, x2 = 0.2994 | 1.011 mPa·s
303.15 K, x2 = 0.4025 | 1.055 mPa·s
303.15 K, x2 = 0.4985 | 1.086 mPa·s
303.15 K, x2 = 0.53 | 1.163 mPa·s
303.15 K, x2 = 0.5302 | 1.163 mPa·s
303.15 K, x2 = 0.6286 | 1.164 mPa·s
303.15 K, x2 = 0.629 | 1.164 mPa·s
303.15 K, x2 = 0.7245 | 1.161 mPa·s
303.15 K, x2 = 0.725 | 1.161 mPa·s
303.15 K, x2 = 0.91 | 1.078 mPa·s and 1.092 mPa·s
308.15 K, x1 = 0.219 | 1.024 mPa·s
308.15 K, x1 = 0.5081 | 0.992 mPa·s
308.15 K, x1 = 0.675 | 0.93 mPa·s
308.15 K, x1 = 0.8092 | 0.871 mPa·s
308.15 K, x1 = 0.892 | 0.834 mPa·s
313.15 K, x1 = 0.1175 | 0.95 mPa·s
313.15 K, x1 = 0.219 | 0.945 mPa·s
313.15 K, x1 = 0.373 | 0.934 mPa·s
313.15 K, x1 = 0.5081 | 0.92 mPa·s
313.15 K, x1 = 0.675 | 0.866 mPa·s
313.15 K, x1 = 0.8092 | 0.81 mPa·s
313.15 K, x1 = 0.892 | 0.778 mPa·s
318.15 K, x1 = 0.1175 | 0.882 mPa·s
318.15 K, x1 = 0.219 | 0.876 mPa·s
318.15 K, x1 = 0.373 | 0.865 mPa·s
318.15 K, x1 = 0.5081 | 0.85 mPa·s
318.15 K, x1 = 0.675 | 0.806 mPa·s
318.15 K, x1 = 0.8092 | 0.757 mPa·s
318.15 K, x1 = 0.892 | 0.73 mPa·s

CCN(CC)CC + Cc1ccc(C)cc1
303.15 K, 101 kPa
Conditions | viscosity [mPa·s]
x1 = 0.0103 | 0.5611
x1 = 0.02055 | 0.5576
x1 = 0.03043 | 0.5525
x1 = 0.04261 | 0.5488
x1 = 0.05408 | 0.5433
x1 = 0.06646 | 0.5381
x1 = 0.07602 | 0.5342
x1 = 0.08463 | 0.5307
x1 = 0.09589 | 0.5253
x1 = 0.1075 | 0.5207

CCCOC(C)=O + O=S1(=O)CCCC1
101 kPa
Conditions | viscosity [mPa·s]
303.15 K, x1 = 0.0177 | 9.305
308.15 K, x2 = 0.6489 | 2.375
313.15 K, x2 = 0.7639 | 3.185

ClC(Cl)(Cl)Cl + CCCCCCCO
viscosity [mPa·s], 101 kPa
Conditions | 298.15 K | 308.15 K | 318.15 K
x2 = 0.0559 | 0.969 | 0.832 | 0.725
x2 = 0.07 | 0.982 | – | –
x2 = 0.13 | 1.102 | – | –
x2 = 0.147 | 1.151 | 1.004 | 0.867
x2 = 0.19 | 1.237 | – | –
x2 = 0.25 | 1.402 | – | –
x2 = 0.2529 | 1.453 | 1.227 | 1.052
x2 = 0.3189 | – | 1.321 | 1.096
x2 = 0.3828 | 1.836 | 1.489 | 1.231
x2 = 0.47 | 2.175 | – | –
x2 = 0.57 | 2.716 | – | –
x2 = 0.6371 | 3.08 | 2.329 | 1.851
x2 = 0.67 | 3.302 | – | –
x2 = 0.7713 | 3.949 | 2.943 | 2.256
x2 = 0.816 | 4.238 | 3.167 | 2.422
x2 = 0.84 | 4.527 | – | –

ClC(Cl)(Cl)Cl + CS(C)=O
Conditions | viscosity [mPa·s]
298 K, 101.3 kPa, x1 = 0.1093 | 2.001
298 K, 101.3 kPa, x1 = 0.226 | 1.852
298 K, 101.3 kPa, x1 = 0.4246 | 1.654
298 K, 101.3 kPa, x1 = 0.5746 | 1.5
298 K, 101.3 kPa, x1 = 0.6402 | 1.399
298 K, 101.3 kPa, x1 = 0.8661 | 1.067
303.15 K, 101.33 kPa, x1 = 0.2642 | 1.553
303.15 K, 101.33 kPa, x1 = 0.3011 | 1.526
303.15 K, 101.33 kPa, x1 = 0.3924 | 1.483
303.15 K, 101.33 kPa, x1 = 0.4763 | 1.391
303.15 K, 101.33 kPa, x1 = 0.5118 | 1.358
303.15 K, 101.33 kPa, x1 = 0.5664 | 1.304
318 K, 101.3 kPa, x1 = 0.114 | 1.312
318 K, 101.3 kPa, x1 = 0.2398 | 1.25
318 K, 101.3 kPa, x1 = 0.424 | 1.139
318 K, 101.3 kPa, x1 = 0.5763 | 1.035
318 K, 101.3 kPa, x1 = 0.8096 | 0.8725

ClC(Cl)(Cl)Cl + CC(C)O
313.15 K, 101.33 kPa
Conditions | viscosity [mPa·s]
x2 = 0.115 | 0.7291
x2 = 0.22 | 0.7336
x2 = 0.325 | 0.7548
x2 = 0.421 | 0.7812
x2 = 0.5 | 0.8175
x2 = 0.602 | 0.8746
x2 = 0.685 | 0.9355
x2 = 0.745 | 0.9868
x2 = 0.879 | 1.145
